Measurements taken from patent US20220288051A1, “METHODS FOR TREATING CANCER USING SERIAL ADMINISTRATION OF E3 UBIQUITIN LIGASE DEGRADERS” (Dana-Farber Cancer Institute, Inc., priority 2019, published 2022).
Entries after “also recorded” stand apart in the source; their conditions may differ.

How the values were obtained:
MM.1S-dCas9-VP64 cells = test: Genome-scale CRISPR gene activation resistance screens; assay type: cell-based, human; settings: Calabrese library; successive rounds of treatment
Description: We also performed genome-scale CRISPR-based gene-activation screens, which followed the “long-term” configuration of the gene editing studies.
For the genome-scale screen with the Calabrese sgRNA library, tumor cells were transduced in batches of 3×10^7 cells per sublibrary for triplicates. Cells were incubated (18 h) in cell medium containing polybrene (4 μg/mL; Santa Cruz Biotechnology), 10 mM HEPES (pH 7.4) (Sigma-Aldrich) and viral prep (30 mL) diluted 1:1. Transduced cells were cultured at an initial density of 1×10^6 cells/mL and were treated with puromycin (1 μg/mL) for up to 7 days additional two days from transduction. After stable transduction, pooled MM.1S cells were plated at 30×10^6 cells per flask (T175, 100 mL) to enable coverage of 500× and were sub-cultured at three- to four-day intervals to prevent confluence. […]
Cells were immediately harvested (30×10^6) and sgRNA distribution assessed, by next generation sequencing.
iv. […] DNA concentration was quantified by UV-spectroscopy (NanoDrop 8000; ThermoFisher Scientific). […] Multiplexed samples were then sequenced at the Molecular Biology Core Facility (Dana-Farber Cancer Institute) and/or The Genomics Platform (Broad Institute) using an Illumina NextSeq 500 (Illumina, San Diego, Calif.), allowing […] individual reads per multiplexed sample.

pools of MM cells = test: Sequential exposure to CRBN- and VHL-based degraders, CTG; assay type: cell-based, human; settings: compared to treatment-naïve cells
Excerpt: We addressed this question using pools of MM cells derived from several of our genome-scale CRISPR-based screens.

MDR1 transporter = MDR1 transporter (Homo sapiens, UniProt P08183); settings: stated as fact; cited from earlier work
MM.1S-Cas9+ cells = test: Genome-scale CRISPR/Cas9 gene editing (LOF) resistance screens; assay type: cell-based, human; settings: 25 nM for 48 hrs; Brunello library
MM.1S cells [1] = test: RNA-sequencing of treated MM.1S cells; assay type: cell-based, human
human MM.1S cells = test: Subcutaneous MM xenograft model; assay type: in vivo, NSG mice
Description: (§1) i. Subcutaneous MM xenograft model: Luciferase-positive MM.1S cells (10×106 Luc-GFP-MM.1S in matrigel) were transplanted into the right flank of NSG mice (100 μL). […] Treatments were carried out daily for 8 days and tumor size assessed daily using calipers. Mice were culled when tumors reached 2000 mm3 or when moribund.

[2] = Tolerability of dBET6 treatment in mice; assay type: in vivo
Description: as §1
ii. Xenograft model of diffuse MM lesions: Luciferase-positive MM.1S cells (1×106 Luc-GFP-MM.1S) were injected via the tail vein (IV) into NSG mice. […] BLI was undertaken weekly and mice were euthanized when moribund or upon signs of hind-limb paralysis.

MM.1S cells [3] = test: CTG viability of CRISPR-edited MM.1S pools tolerant to bortezomib or JQ1; assay type: cell-based, human; settings: vs treatment-naive cells with the same sgRNA library
Description: Cell viability and growth of human MM cell lines were assessed using CellTitre-Glo (CTG) assay (Promega, Madison, Wis.) per kit instructions, or CS-BLI as described (Delmore et al., 2011). Briefly, cells were seeded (5×10^3 cells/well) into 96- or 384-well opaque plates, in supplemented media (40 or 50 uL) and incubated for 24 h prior to addition of drug. For co-culture experiments, HS27A cells were pre-seeded (5×10^3 cells/well) into each well in media prior (24 h) to the addition of MM cells. At each time point (24 h, 48 h, and/or 72 h) CTG reagent (10% volume) was added to each well, and plates were read using a microplate reader (BioTek Synergy 2, BioTek, Winooski, Va.).
iii. […] Following treatments, all cells were serially cultured without drug and allowed to regrow for as long as required to enable reseeding (60×10^6 cells per flask, 100 mL) and retreatment with individual drugs while maintaining ˜1000× coverage throughout. Concomitant with retreatment, remaining cells were frozen (−80° C.; 20% FBS/DMSO) for later analysis or assessed for drug resistance/sensitivity using CTG assays. Between treatments, and in order to maintain the health of cultures, dead cells were periodically removed using Ficoll centrifugation (1,500 rpm for 10-20 min). For all CRISPR drug treatment experiments, aliquots of MM.1S-Cas9+ cells transduced with the GeCKO(Sanjana et al., 2014; Shalem et al., 2014) or Brunello (Doench et al., 2016) sgRNA libraries were frozen immediately prior to experimentation to determine the baseline distribution of sgRNAs in the cell population.

[4] = tested on: OPM1, OCI-MY5, KMS11 and OPM2 (shRNAs against CRBN); test: CTG viability of MM cell lines with low CRBN levels; assay type: cell-based, human; settings: low but detectable CRBN, constitutive or shRNA
Excerpt: Human MM cell lines KMS11 and OPM-2 expressing non-targeting control shRNAs or shRNA.

Chain of MDR1 transporter (P08183 whole entry): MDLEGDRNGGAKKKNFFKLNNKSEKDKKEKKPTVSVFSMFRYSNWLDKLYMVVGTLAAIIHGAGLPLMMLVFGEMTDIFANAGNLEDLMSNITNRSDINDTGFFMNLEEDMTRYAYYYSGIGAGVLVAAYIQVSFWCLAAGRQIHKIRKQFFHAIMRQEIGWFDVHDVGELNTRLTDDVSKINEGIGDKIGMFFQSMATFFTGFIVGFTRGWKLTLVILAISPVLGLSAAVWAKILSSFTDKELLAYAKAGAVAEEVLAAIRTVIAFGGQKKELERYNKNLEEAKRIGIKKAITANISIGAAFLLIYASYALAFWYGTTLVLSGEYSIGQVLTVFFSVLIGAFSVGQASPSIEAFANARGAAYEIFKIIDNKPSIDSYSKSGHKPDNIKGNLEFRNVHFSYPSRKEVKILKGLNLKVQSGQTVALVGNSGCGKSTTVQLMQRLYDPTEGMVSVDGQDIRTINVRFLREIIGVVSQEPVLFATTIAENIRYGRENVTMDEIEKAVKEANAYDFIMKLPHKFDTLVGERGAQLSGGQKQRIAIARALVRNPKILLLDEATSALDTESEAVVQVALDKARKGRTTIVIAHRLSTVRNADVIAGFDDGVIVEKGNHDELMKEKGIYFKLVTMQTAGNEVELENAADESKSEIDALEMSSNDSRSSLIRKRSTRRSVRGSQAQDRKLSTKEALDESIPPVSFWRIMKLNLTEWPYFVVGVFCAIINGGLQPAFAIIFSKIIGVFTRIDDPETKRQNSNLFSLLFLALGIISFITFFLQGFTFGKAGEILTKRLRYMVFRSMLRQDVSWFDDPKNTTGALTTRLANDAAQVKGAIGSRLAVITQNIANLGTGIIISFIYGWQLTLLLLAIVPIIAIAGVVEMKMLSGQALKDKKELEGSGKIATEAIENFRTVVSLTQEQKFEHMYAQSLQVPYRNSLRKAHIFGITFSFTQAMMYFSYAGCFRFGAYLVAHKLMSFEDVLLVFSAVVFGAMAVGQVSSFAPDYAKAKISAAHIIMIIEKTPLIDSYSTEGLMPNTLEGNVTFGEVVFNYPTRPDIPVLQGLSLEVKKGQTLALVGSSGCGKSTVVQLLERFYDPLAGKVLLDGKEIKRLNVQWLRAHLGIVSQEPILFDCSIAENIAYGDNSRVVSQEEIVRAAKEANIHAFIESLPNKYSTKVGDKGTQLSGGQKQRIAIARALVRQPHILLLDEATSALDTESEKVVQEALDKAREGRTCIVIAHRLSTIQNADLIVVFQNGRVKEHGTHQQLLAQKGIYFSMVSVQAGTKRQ

Structure (SMILES) | sgRNA enrichment, gene activation screen (MM.1S-dCas9-VP64 cells) | response of pools previously exposed to ARV771 and then MZ1 (pools of MM cells) | shift of dose response curve in pools previously exposed to CRBN-based degraders (pools of MM cells) | MDR1 substrate (MDR1 transporter) | sgRNA enrichment, short-term screen (MM.1S-Cas9+ cells) | transcriptional profile (RNA-Seq), down-regulated transcripts (MM.1S cells [1]; dBET6 0.1 or 0.5 μM vs JQ1 0.5 μM, 4 h) | suppression of c-MYC at transcript level (MM.1S cells [1]; dBET6 vs JQ1-treated MM.1S cells) | rate of tumor growth increase (human MM.1S cells; 30 mg/kg, QD, 8d, IP) | increase in overall survival (human MM.1S cells; 30 mg/kg, QD, 8d, p<0.05) | survival (human MM.1S cells; subcutaneous MM xenografts) | tumor burden vs vehicle (human MM.1S cells; subcutaneous MM.1S xenograft) | tolerability ([2]; doses and schedules reported) | efficacy or tolerability of alternative regimens ([2]; pilot experiments, lower or higher dose intensity (data not shown)) | dBET6 sensitivity of pools tolerant to bortezomib or JQ1 (MM.1S cells [3]) | response of lines with low CRBN levels [4]
Cc1ncsc1-c1ccc([C@H](C)NC(=O)[C@@H]2C[C@@H](O)CN2C(=O)[C@@H](NC(=O)COCCCOCCNC(=O)C[C@@H]2N=C(c3ccc(Cl)cc3)c3c(sc(C)c3C)-n3c(C)nnc32)C(C)(C)C)cc1 [ARV-771] | ABCB1, the gene for the MDR1 transporter, was commonly identified as the only gene with sgRNA enrichment | significantly decreased responsiveness | limited, if any, shift | MDR1 substrates |  |  |  |  |  |  |  |  |  |  | 
CC(C)(C)c1cnc(CSc2cnc(NC(=O)C3CCN(CC(=O)NCCOCCOCCOCCNc4cccc5c4C(=O)N(C4CCC(=O)NC4=O)C5=O)CC3)s2)o1 (stereo not shown) [Thal-SNS-032] |  |  | major shifts to the right |  | CRBN is the top gene in terms of sgRNA enrichment |  |  |  |  |  |  |  |  |  | 
Cc1sc2c(c1C)C(c1ccc(Cl)cc1)=N[C@@H](CC(=O)NCCCCCCCCNC(=O)COc1cccc3c1C(=O)N(C1CCC(=O)NC1=O)C3=O)c1nnc(C)n1-2 (stereo partly shown) [dBET6] | ABCB1, the gene for the MDR1 transporter, was commonly identified as the only gene with sgRNA enrichment |  |  | MDR1 substrates | CRBN is the top gene in terms of sgRNA enrichment | down-regulation of a larger group of transcripts | more pronounced suppression of c-MYC | significantly suppressed the rate of tumor growth increase | 10 days | prolongation of survival | significantly lower tumor burden | Mice tolerated dBET6 treatment | less efficacy or tolerability, respectively | do not exhibit resistance to dBET6; also recorded: equal to or greater than treatment-naive cells | remained responsive to dBET6
